# Experiments:
# [1] = target: BTK protein in human whole blood (Homo sapiens (Human), UniProt Q06187); test: Btk protein in human whole blood MSD ELISA based assay (Btk degradation); format: cell-based; conditions: human whole blood from healthy donors, 6 hours at 37° C., half maximal degradation concentration; read-out: hWB BTK DC50
# Method: Btk protein degradation was tested using an Meso Scale Discovery-ELISA system (MSD-ELISA): (1) Test compounds were added to human whole blood; (2) human whole blood cells treated with test compounds were lysed; (3) lysed cells were treated with capture antibody, an antibody to Btk; (4) lysed cells were treated with […] to Btk; and (5) lysed cells were treated with anti-mouse antibody (tagged).
# Specifically, about 80 μl of fresh human whole blood from healthy donors was transferred into each well of a 96-well V-bottom plate (Costar, Cat No.3894). Using a TECANTM D300e Digital Dispenser (Tecan)), 1:4 serially diluted compounds [(8 pt assay) in DMSO solution (final 0.2%) starting at 3 μM top concentration], were added in duplicate. Thereafter, plates were placed in a 37° C. incubator and incubated for 6 hours.
# At the end of incubation, 80 μl of 2× CST lysis buffer (Cell Signaling Technology, Cat No. 9803), prepared from a 10× stock solution, was added per well to lyse the blood. Plates were then sealed with a plate sealer and the samples were frozen overnight at −80° C.
# Total amount of BTK protein remaining in the blood samples after compound treatment was measured using MSD-ELISA. After thawing the frozen plates, blood lysates were mixed thoroughly and transferred to small spot high-bind MSD plates (Meso Scale Discovery, Cat No. L45XB-3) and coated with capturing antibody, rabbit anti-human BTK (D3H5) (Cell Signaling Technology, Cat No. 8547CF). Thereafter, primary detection antibody, mouse anti-human BTK monoclonal antibody, (BD Biosciences, Cat No. 611117) and secondary detection antibody, anti-mouse SULFO-TAG (Meso Scale Discovery, Cat No. R32AC-1) were added. The assay plates were read on an MSD S600 plate reader by the addition of 2× MSD read buffer (Meso Scale Discovery, R92TC-1). All reagent transfers, including blood lysis, was conducted using a Biomed i7 liquid handler. From the dose response curves, DC50 values were calculated by averaging data from duplicate experiments. and Curve fitting was done by non-linear regression using GraphPad Prism. The DC50 values are reported in Table 2 in the hWB BTK DC50 (nM) column The Dmax values represent the maximum amount of BTK degradation observed upon compound treatment compared to DMSO only treated samples. The dMax (%) values are reported in Table 2 in the hWB BTK dMax (%) column.
# BTK in mouse bone marrow = BTK in mouse bone marrow (Mus musculus (Mouse), UniProt P35991); test: Mouse Bone Marrow Assay (MSD ELISA of BTK degradation in mouse bone marrow); format: in vivo; conditions: female C57BL/6J mice, single dose of Dose A, bone marrow collected after 24 hours, % remaining BTK in vehicle versus treated samples
# Method: Female C57BL/6J mice (Jackson Laboratories) were used for this study. Compounds or vehicle/control were prepped with EtOH; PEG-400; Phosal 53 MCT (10:30:60, v/v). Four mice were tested per compound or vehicle/control. On Day 1, mice were administered a single dose of Dose A. On Day 2 (after 24 hours), tissue (bone marrow) was collected from one hind leg per mouse.
# An MSD (Meso Scale Discovery) ELISA (enzyme-linked immunosorbent assay) based assay was used to determine BTK degradation in mouse bone marrow. The following materials and equipment were used: 10% NP40 solution (nonionic polyoxyethylene surfactant, ThermoFisher, cat no. 28324); protease inhibitor mini tablet (Roche, cat no. 05 892 970 001); PhosphoSTOP™ tablet (Roche, cat no. 04 906 837 001); Pierce™ BCA Protein Assay Kit (Thermofisher, Cat No. 23225); Precellys® 2 mL lysing tube with 2.8 mm beads (VWR, cat no. 10032-756); Bertin Precellys® 24/Cryolys ® cooling system; 96-well MSD streptavidin pre-coated plates (MSD, cat no. L15SA-1); MSD Blocker A (MSD, cat no. R93BA-4); capture antibody, biotinylated BTK mAb (BD Biosciences, cat no. 624008; custom order); primary detection antibody, BTK RpAb (rabbit polyclonal antibody, CST, cat no. 8547S, D3H5 clone); secondary detection antibody, anti-Rabbit-Sulfo-Tag (MSD, cat no. R32AB-1); read Buffer, 4× (MSD, cat no. R92TC-1); recombinant BTK protein (Thermofisher, cat no. PR5442A); MSD Tris Wash Buffer (10×) (MSD, cat no. R61TX-1); PBS (phosphate-buffered saline); deionized water (diH2O); Lysis Buffer [0.2% NP40 in PBS+Protease Inhibitor tablet (1 tablet/10 mL)+PhosphoSTOP tablet (1 tablet/10 mL)]; 3% MSD Blocker A [MSD Blocker A+450 mL diH2O+50 mL]; and 10× MSD Tris Wash Buffer.
# Lysis buffer [(PBS+0.2% NP40+PI (protease inhibitor)+PhosphoSTOP)]was prepared and put on ice until it was fully cold. Ice cold lysis buffer […] was added to each Precellys® tube containing beads and bone marrow sample. Sample tubes were transferred into Precellys® machine and homogenized using 5000 rpm -2×20 seconds. The sample lysates were centrifuged at 14,000 rpm for 20 minutes at 4° C. after homogenizing.
# The protein concentration was determined using Pierce™ BCA Protein Assay Kit following manufacturer's recommended protocol. The protein normalized working solution was prepared, using 30 μg protein per sample lysate for assay.
# A 300 ng/ml working stock solution of recombinant BTK protein in lysis buffer was prepared, and the sample was serially diluted at 3-fold dilution (10-point assay, highest concentration was 300 ng/mL and lowest concentration was 0.015 ng/mL)
# MSD plate coating: Coating antibody (biotinylated-BTK mAb) stock solution was prepared at 1 μg/mL in PBS buffer. 50 μL/well capture antibody (Biotinylated BTK mAb) solution was added, and the plates were shaken gently at ambient temperature for two hours. The plates were washed 3 times with 1× MSD Tris Wash Buffer in a plate washer (300 μL/well), and the plates were blocked with 3% MSD Blocker A (150 μL/well). The plates were incubated for an additional 1-2 hours at ambient temperature with gentle shaking. The plates were washed 3 times with 1× MSD wash buffer using plate washer. Bone marrow lysates (30 μg) at a final volume of 50 μL/well were added into the plates. The serially diluted standard samples were added to the same plates at a final volume of 50 μL/well. The plates were incubated overnight at 4° C. with gentle shaking.
# The plates were washed three times with 1× MSD wash buffer (prepared from 10× concentration buffer) using plate washer. Primary detection antibody at 50 μL/well was added (BTK RpAb; 1:1000 dilution in 1% MSD Blocker A). The plates were incubated for two hours at ambient temperature with gentle shaking. The plates were washed three times with 1× MSD wash buffer using plate washer. Anti-Rabbit-SULFO-TAG secondary antibodies (50 μl/well) were added, 1:500 diluted in 1% MSD Blocker A, and the plates were incubated for one to two hours at ambient temperature. […]
# Sequence of BTK in mouse bone marrow (P35991 whole entry): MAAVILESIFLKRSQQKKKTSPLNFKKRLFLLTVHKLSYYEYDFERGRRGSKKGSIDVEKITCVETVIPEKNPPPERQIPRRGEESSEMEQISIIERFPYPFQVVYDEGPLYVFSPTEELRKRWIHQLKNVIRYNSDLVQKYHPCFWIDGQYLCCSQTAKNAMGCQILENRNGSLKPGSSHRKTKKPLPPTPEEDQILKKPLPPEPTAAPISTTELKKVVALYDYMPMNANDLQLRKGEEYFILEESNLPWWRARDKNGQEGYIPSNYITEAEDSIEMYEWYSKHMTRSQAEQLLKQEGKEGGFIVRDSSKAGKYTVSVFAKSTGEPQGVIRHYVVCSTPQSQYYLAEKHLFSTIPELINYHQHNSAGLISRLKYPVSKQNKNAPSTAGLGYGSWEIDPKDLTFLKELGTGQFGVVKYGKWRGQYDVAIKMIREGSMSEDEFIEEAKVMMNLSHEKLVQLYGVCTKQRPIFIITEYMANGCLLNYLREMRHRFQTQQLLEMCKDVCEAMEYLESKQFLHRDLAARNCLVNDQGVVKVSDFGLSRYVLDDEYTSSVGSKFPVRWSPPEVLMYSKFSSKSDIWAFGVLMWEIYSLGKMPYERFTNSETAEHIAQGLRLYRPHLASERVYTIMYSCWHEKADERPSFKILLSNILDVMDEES
# Sequence of BTK protein in human whole blood (Q06187 whole entry): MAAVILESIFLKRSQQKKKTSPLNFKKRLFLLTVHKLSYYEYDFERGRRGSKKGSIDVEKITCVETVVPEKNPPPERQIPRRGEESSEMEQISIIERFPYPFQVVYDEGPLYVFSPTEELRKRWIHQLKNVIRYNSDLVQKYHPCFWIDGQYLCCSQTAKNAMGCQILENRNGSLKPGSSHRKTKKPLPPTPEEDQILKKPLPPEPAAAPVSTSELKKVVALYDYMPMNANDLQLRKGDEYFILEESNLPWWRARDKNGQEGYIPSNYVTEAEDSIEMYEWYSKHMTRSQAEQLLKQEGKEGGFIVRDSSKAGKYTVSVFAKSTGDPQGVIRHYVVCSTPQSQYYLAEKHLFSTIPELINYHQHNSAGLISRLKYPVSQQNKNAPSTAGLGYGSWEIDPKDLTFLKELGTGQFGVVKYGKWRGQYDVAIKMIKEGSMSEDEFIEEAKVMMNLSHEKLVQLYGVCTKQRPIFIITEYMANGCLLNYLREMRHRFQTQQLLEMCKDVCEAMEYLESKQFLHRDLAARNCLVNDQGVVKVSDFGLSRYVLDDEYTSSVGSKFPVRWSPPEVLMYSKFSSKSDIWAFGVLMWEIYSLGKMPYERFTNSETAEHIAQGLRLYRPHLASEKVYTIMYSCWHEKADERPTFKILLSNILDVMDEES
DC50 [1] [nM],"Mouse Bone Marrow (%), % remaining BTK (BTK in mouse bone marrow) [%]",Structure (SMILES)
3.04,9,"Cc1c([C@@H](C)NC(=O)c2nc(C(C)(C)C)no2)ccc(-c2cc(Nc3ccc(N4CCN(CCc5ccc(N6CCC(=O)NC6=O)cc5)C[C@@H]4C)cn3)ncn2)c1F [Example 10, 3-tert-butyl-N-[(1R)-1-{4-[6-({5-[(2S)-4-{2-[4-(2,4-dioxo-1,3-diazinan-1-yl)phenyl]ethyl}-2-methylpiperazin-1-yl]pyridin-2-yl}amino)pyrimidin-4-yl]-3-fluoro-2-methylphenyl}ethyl]-1,2,4-oxadiazole-5-carboxamide]"
4.31,29,"Cc1c([C@@H](C)NC(=O)c2nc(C(C)(C)C)no2)ccc(-c2cc(Nc3ccc(N4CCN(CCc5ccc(N6CCC(=O)NC6=O)cc5)CC4)cn3)ncn2)c1F [Example 11, 3-tert-butyl-N-{(1R)-1-[4-(6-{[5-(4-{2-[4-(2,4-dioxo-1,3-diazinan-1-yl)phenyl]ethyl}piperazin-1-yl)pyridin-2-yl]amino}pyrimidin-4-yl)-3-fluoro-2-methylphenyl]ethyl}-1,2,4-oxadiazole-5-carboxamide]"
